Columns and labels:
[1] = test system: ureter; assay: Ureteral mapping with methylene blue in pigs; format: in vivo; settings: preclinical studies, in some cases
Procedure: In anesthetized 3 pigs, 1 mg/kg of methylene blue was injected intravenously and then the abdomen was opened surgically and ureter was identified by imaging. For pelvic arteriography, 0.06 mg/kg ICG (75 nmol/kg) was injected intravenously.

[2] = test system: coronary arteries and myocardium; assay: Angiographic and myocardial perfusion imaging in pigs; format: in vivo
Procedure: (§1) Male Sprague-Dawley, 300 g rats obtained from Charles River Laboratories (Wilmington, Mass.) were anesthetized with 65 mg/kg IP pentobarbital. 30 kg adult female Yorkshire pigs (E.M. Parsons & Sons, Hadley, Mass.) were induced with 4.4 mg/kg intramuscular Terazol (Fort Dodge Labs, Fort Dodge, Iowa). Pigs were intubated and maintained with 1.5-2% isoflurane.
(§2) In anesthetized rats, 0.1, 0.5 and 1 mg/kg MB were injected intravenously, and then images were taken during 15 min after injection. Signal to background ratio (SBR) (the signal of left anterior descending branch of coronary artery (LAD) relative to that of chest wall, and the signal of myocardium relative to that of chest wall) was quantified using the same region of interest (ROI) through entire observation. In anesthetized pigs, 100 μL/kg of 0.5% methylene blue (1.6 μmol/kg) was injected intravenously and then the hearts were observed using the imaging system described herein. For multi-wavelength fluorescence imaging, 0.25 ml of 100 μM ICG (75 nmol/kg) was injected intravenously in rats and 0.06 mg/kg ICG (75 nmol/kg) in pigs.
The system was adjusted to account for the optical properties of methylene blue. Briefly, the light source of the original system is composed of a white light source and a near-infrared light source. The surgical field is illuminated with both lights, and its excitation fluence rate is 5 mW/cm^2. […]

[3] = test system: common bile duct; assay: Cholangiographic imaging with methylene blue in pigs; format: in vivo
Procedure: In anesthetized pigs, bile duct was visualized by intravenous injection of 100 μL/kg of 1% MB, or direct cannulation into the common bile duct for injection of 50 μM of MB. Fluorescence intensities of bile duct, liver (right lobe), and abdominal wall were measured at 3, 5, 10, 20, and 30 minutes following injection. For hepatic arteriography and portography, 0.06 mg/kg ICG (75 nmol/kg) is injected intravenously.

[4] = test system: thoracic duct; assay: Thoracic duct mapping in pigs; format: in vivo; settings: 5 mL of 1% into inguinal lymph node
Procedure: In anesthetized pigs, 5 mL of 1% methylene blue was injected into an inguinal lymph node, then the thoracic duct was observed.

[5] = test system: common bile duct, vasculature, coronary artery, myocardium; assay: Multi-wavelength fluorescence imaging with MB and ICG; format: in vivo, pigs; settings: pig, ICG 800 nm, MB 700 nm
Procedure: Therefore, MB was used to visualize CBD in an anesthetized pig, while ICG was used to visualize vasculature.
To evaluate the possibility of multi-wavelength fluorescent imaging, ICG and methylene blue were used.
1 mg/kg methylene blue IV injection was followed 30 min after by 0.03 mg/kg ICG IV injection. […] NIR camera exposure time was 100 msec.
Next, one of the diagonal branches of the coronary artery (D2) was clamped (white arrow), and then 1 mg/kg of methylene blue was injected intravenously; see the second row of images. Just after releasing the clamp, 0.03 mg/kg ICG was injected intravenously. […] The right-most image in the second row was created by merging the image of the coronary arteriography using methylene blue at clamping D2 and the image using ICG after declamping D2.

[6] = Absorbance spectrometry; format: physicochemical
Procedure: (§3) Absorbance spectrometry was performed with a 1-cm path length quartz cuvette in a USB2000 fiber-optic spectrometer (Ocean Optics, Dunedin, Fla.). Fluorescence spectrometry was performed with a 1-cm path length, 1.5 mL disposable methacrylate cuvette (Fisher Scientific, Hampton, N.H.) in a HR2000 fiber-optic spectrometer, and CUV-ALL-UV four-way cuvette holder (Ocean Optics), using a 655 nm laser diode light source (OPCOM O.E. Inc., Xiamen, China) with maximum output less than 5 mW. Data acquisition was performed with a computer using an OOI-Base32 spectrometer operating software package (Ocean Optics). The spectral range of the USB2000-FL spectrometer was from 350 to 1000 nm with spectral resolution of 7.6 nm, and that of the HR2000 spectrometer was from 200 to 1100 nm with a spectral resolution of 6.7 nm.

[7] = clinical use; cited from earlier work
[8] = test system: coronary arteries and myocardium; assay: Angiographic and myocardial perfusion imaging in rats; format: in vivo
Procedure: as §1, §2
The system was adjusted to account for the optical properties of methylene blue. Briefly, the light source of the original system is composed of a white light source and a near-infrared light source. The surgical field is illuminated with both lights, and its excitation fluence rate is 5 mW/cm^2. White light and near-infrared images were able to be captured separately using a dichroic filter cube set, and these images could be merged. Images were captured and refreshed 15 times a second.
The system was modified in 3 ways for use with MB. First, the white lights were filtered with HQ675SP (Chroma Technology, Brattleboro, Vt.). Second, 4 pairs of 400 mA, 660 nm LEDs were added and filtered with HQ650/45X (chroma.) instead of the near-infrared light source. Excitation fluence rate with this new light source is 1 mW/cm^2. Third, the dichroic filter and emission filter were changed to 680 dcxr (chroma.), HQ700/35 (chroma.), respectively.

[9] = test system: parathyroid gland; assay: Parathyroid gland imaging using methylene blue; format: in vivo; settings: 2 mg/kg over 15 minutes, along with NaHCO3
Procedure: To determine whether MB fluorescence emissions could be used to image the parathyroid gland, 2 mg/kg MB was administered over 15 minutes, along with NaHCO3, prior to surgery.

[10] = Environment-, concentration- and pH-dependence of MB fluorescence; format: physicochemical
Procedure: For the experiment shown in FIG. 1A, pure methylene blue powder was dissolved in phosphate-buffered saline (pH 7.4), 100% fetal bovine serum, or absolute methanol, at the concentration shown, and fluorescence intensity (arbitrary values) measured.
For this experiment, pure methylene blue powder was dissolved in PBS, FBS, or methanol, at the concentrations shown in FIGS. 1A-C, the spectrum of its absorbance and fluorescence emission obtained, and the peak of each identified.
Finally, the pH dependence of MB was examined, by dissolving MB in PBS (pH 6), Ascorbic Acid, HCl, and a NaHCO3-buffered solution. […] This is an important consideration because intermolecular quenching and internal absorption often limit the usable dose range of fluorescent contrast agents.

[11] = Fluorescence spectrometry and fluorescence quantum yield; format: physicochemical
Procedure: as §3
Fluorescence intensity was measured in each solvent (PBS, FBS, and methanol) at each concentration of the dye to determine the effect of the methylene blue concentration and solvents on total fluorescence yield. Fluorescence quantum yields of methylene blue in PBS, FBS, and methanol were calculated using oxazine725 in ethylene glycol (quantum yield: 19%) as a calibration standard, under the conditions of matched absorbance of methylene blue in each solvent.

[12] = test system: common bile duct; assay: Cholangiographic imaging with methylene blue in rats; format: in vivo; settings: 1 mg/kg iv
Procedure: In anesthetized rats, 100 μL/kg of 1% MB (1 mg/kg) was injected intravenously via penile vein. A simultaneous color video/NIR fluorescence intraoperative imaging system was employed for quantification of fluorescence images. For multi-wavelength fluorescence imaging, 0.25 ml of 100 uM ICG (75 nmol/kg) was injected intravenously in rat and hepatic arteriography and portography can be seen.

Excitation Wavelength Maximum, (FBS) ([6]; in FBS): 666 nm | Molar Extinction Coefficient, (FBS) ([6]; in FBS): 86500 M⁻¹ cm⁻¹ | Excitation Wavelength Maximum, PBS ([6]; in PBS): 665 nm | Molar Extinction Coefficient, PBS ([6]; in PBS): 71500 M⁻¹ cm⁻¹ | Excitation Wavelength Maximum, [MtOH] ([6]; in methanol): [653] nm | Molar Extinction Coefficient, [MtOH] ([6]; in methanol): [71500] M^−1cm^−1 | fluorescence in acidic solutions ([10]; Ascorbic Acid, HCl): essentially no fluorescence | fluorescence at the more basic pH ([10]; PBS (pH 6), NaHCO3-buffered solution): significant fluorescence | pH favoring the fluorescent methylene blue form ([10]; equilibrium with leucomethylene blue): ≥ 6 | concentration of peak fluorescence intensity ([10]; intermediate concentrations): 4 to 50 µM | Emission Wavelength Maximum, (FBS) ([11]; in FBS): 685 (685) nm | Fluorescence Quantum Yield, (FBS) ([11]; in FBS): 2.5% | Emission Wavelength Maximum, PBS ([11]; in PBS): 685 (685) nm | Fluorescence Quantum Yield, PBS ([11]; in PBS): 5.5% | Emission Wavelength Maximum, [MtOH] ([11]; in methanol): [681] nm | Fluorescence Quantum Yield, [MtOH] ([11]; in methanol): [9.5] % | emission wavelength of MB ([11]; peak shifts as a function of dye concentration, listed as MB): 690-700 nm
Compound: CN(C)c1ccc2nc3ccc(=[N+](C)C)cc-3sc2c1 [Methylene Blue, methylene blue]
performance in the ureter [1]: less than optimal performance | signal of myocardium distal to occlusion vs well-perfused myocardium ([2]; ligation of diagonal branch of left anterior descending artery): five-fold lower signal | average SBR of whole heart wall fluorescence ([2]; pig, intravenous injection via external jugular vein): about 1.5 | CBD visualization after direct retrograde administration ([3]; direct cannulation into CBD): successfully visualized the CBD | identification of intrahepatic bile duct by fluorescence ([3]; during hepatic dissection): not identifiable | detection of common bile duct ([3]; intravenous): detectable | thoracic duct in the color image [4]: very faint blue color | thoracic duct in the fluorescence image [4]: clearly visualized in the fluorescence image | structure shown in two-channel NIR imaging [5]: shows the CBD | dose that sometimes causes severe adverse reactions (methemoglobinaemia or anaphylaxis) [7]: 7.5 mg/kg | detection of peripheral branches and coronary vein [8]: not detectable | intravascular (arterial) signals ([8]; 0.1 mg/kg intravenously): not detected | detection of coronary arteries ([8]; 0.5 and 1.0 mg/kg intravenously): could be detected | homogenous signal from the heart wall ([8]; all loading doses): detectable | visibility of the parathyroid [9]: visible | dye stacking in the liver [12]: No dye stacking in the liver was observed | time of maximal ratio of CBD intensity relative to pancreas and liver [12]: around 10 minutes | time ratio of CBD intensity stayed steady after injection [12]: at least 30 minutes | time until CBD detectable after intravenous injection [12]: 2 to 3 min

Source: patent US20080154102A1, “Intraoperative imaging methods” (priority 2006, published 2008)
